In brackets after ≈: the same amount, converted by molar mass. Like-named read-outs stand apart in the source and are kept apart here.
Experiments:
[1] = tested on: normal human colonic epithelial cells CCD 841 CoN; assay: Sulforhodamine B (SRB) cell viability assay, CCD 841 CoN; type: cell-based; conditions: normal colon cells, 72 h of treatment, mean ± SE of three experiments, read-out: IC50 CCD841 CoN
Method: (§1) Cell viability was quantified using the Sulforhodamine B assay described by Skehan et al.. Cells were plated with a density of 5 × 10^3 (HT-29) and 1 × 10^4 (CCD 841 CoN) cells/well and allowed to attach at 37 °C in an atmosphere with 5% CO2. After 24 h, the AMTs dissolved in DMSO were added to the cells (final concentrations of 10, 20, 30, and 50 µg/mL and less than 0.05% of DMSO) and the plates were incubated for 72 h. Then, the cells were fixed by adding 50 μL of TCA (50%) to each well and the plates were maintained for 1 h at 4 °C. The plates were washed five times with deionized water, air-dried, and stained for 30 min at room temperature with 100 μL of 0.4% (w/v) SRB prepared in 1% (v/v) acetic acid. The plates were rinsed quickly five times with 1% acetic acid to remove unbound dye, followed by air-drying. The bound dye was solubilized in 2 mM Tris base (100 μL/well) for 5 min. Optical densities were read on a microplate reader (Spectrophotometer LabsystemsMultiskan EX, λ 492 nm). Three independent assays were conducted, each one in duplicate. A standard curve was constructed for each experiment and used for converting the measured optical density values into numbers of viable cells/well. The inhibition rate was used to evaluate the cell viability and its algorithm was the following formula: ((ODcontrol − ODtreatment)/ODcontrol) × 100; OD, optical density. The OD492 for control cells was taken as 100% viability. The half maximal inhibitory concentration (IC50) was calculated. The selectivity index (SI) of each compound was calculated as IC50 of the compound against the CCD 841 CoN normal cell line/IC50 of the same compound against the HT-29 cancer cell line.

p-AKT in HT-29 cells = assay: Western blot of phosphorylated AKT; type: cell-based, human; conditions: 24 h; 10 and 20 μg/mL for 1, 2, 5, 6, 7, 8; 30 and 60 μg/mL for 3 and 4
Method: (§2) Cells were cultured to 80% confluence at 37 °C. After 24 h of treatment with the compounds (10 and 20 µg/mL for compounds 1, 2, 5, 6, 7, and 8, and 30 and 60 µg/mL for compounds 3 and 4), HT-29 cells were rinsed twice with ice-cold PBS, and then lysed immediately in lysis buffer (250 mM NaCl, 50 mM Tris (pH 7.5), 0.5 mM EDTA, 5 mM EGTA, 8 mM MgCl2, 1 mM PMSF, 0.01 mg/mL pepstatin A, 0.01 mg/mL leupeptin, 0.01 mg/mL aprotinin, 1% Triton X-100). After centrifugation at 12,000 g for 3 min at 4°C to separate the cellular debris, the supernatant was collected and stored at −80°C until use. The protein concentrations were determined using Bio-Rad Protein Assay (BioRad, Richmond, CA, USA), according to the manufacturer’s instructions.
(§3) Equal protein content (50 μg) samples of cell lysates were separated on 10% SDS–polyacrylamide gel and transferred to polyvinylidene difluoride membranes (Hybond-P, Amershan Biosciences, Little Chalfont, UK). The membranes were blocked with 5% (w/v) non-fat dry milk in Tris-buffered saline containing 0.1% Tween-20 buffer (pH 7.4) (TBST) for 1 h at room temperature and incubated with agitation with specific antibodies: anti-pERK1/2 (Cell Signaling; 1:1000), anti-pJNK (Cell Signaling; 1:1000), anti-pAKT (Cell Signaling; 1:1000), anti-β-actin (Sigma-Aldrich; 1:500). Membranes were incubated overnight at 4°C with gentle shaking. The secondary antibody was a peroxidase-conjugated goat anti-mouse or -rabbit antibody (1:10,000; DakoCytomation, Carpinteria, CA, USA). After washing the membrane three times in TBST buffer (10 min), the signals were detected using an enhanced chemiluminescence light-detecting kit (Super-Signal West Pico Chemiluminescent Substrate, Pierce, IL, USA), according to the manufacturer’s instructions and exposed to an X-ray film (GE Healthcare Ltd., Amersham, UK). The protein band densities were analyzed and quantified with a Scientific Imaging Systems (Biophotonics ImageJ Analysis Software, National Institute of Mental Health, Bethesda, MD, USA). β-actin was used to confirm the equal loading and transfer of proteins.

HT-29 colon cancer cells [2] = assay: Annexin V-FITC/PI flow cytometry apoptosis induction assay; type: cell-based, human; conditions: 24 h; for necrosis (dead cells): 30 μg/mL
Method: Quantitative assessment of apoptosis was performed by flow cytometry using an Annexin V-FITC Apoptosis Detection Kit. Briefly, 1 × 10^6 HT-29 cells were seeded per well in six-well plates and incubated for 24 h, followed by the addition of the AMTs dissolved in DMSO (final concentrations of 10, 20, and 30 µg/mL for compounds 1, 2, 5, 6, 7, and 8, and 30, 60, and 90 µg/mL for compounds 3 and 4, and less than 0.05% DMSO) and incubation for 24 h. Curcumin (final concentrations of 50 and 75 μM) was used as positive control. The cells were then washed, harvested with trypsin, and centrifuged at 1500 rpm (5 min, 25 °C). The pellet was resuspended in 195 µL of 1 × Annexin buffer and then stained with 5 μL of Annexin V-FITC and 10 μL of PI for 10 min at room temperature, in the dark. To this mixture 200 μL of 1 × Annexin buffer was added before analysis using a Cytomics FC500 flow cytometer (Beckman Coulter, Indianapolis, IN, USA). Following a gating strategy, flow cytometry plots of size (FS) and complexity (SS) of the HT-29 cells were previously established for the elaboration of a measurement protocol. The normal healthy cells, early apoptosis, late apoptosis, and necrotic populations were represented by annexin V-negative/PI-negative population, annexin V-positive/PI-negative, annexin V-positive/PI-positive and annexin-negative/PI-positive cells, respectively. A total of 10,000 cellular events in each sample were analyzed using DML program.

[3] = tested on: HT-29 human colon carcinoma cells; assay: Sulforhodamine B (SRB) cell viability assay, HT-29; type: cell-based; conditions: for IC50: Homo sapiens, HT-29, 72 h; for Selectivity Index (SI): IC50 for normal cells CCD 841 CoN / IC50 for cancer cells HT-29
Method: as §1

HT-29 colon cancer cells [4] = assay: Cell cycle analysis by flow cytometry (PI); type: cell-based, human; conditions: 24 h; 30 μg/mL of 1, 2, 5, 6, 7, 8 and 90 μg/mL of 3 and 4 (Figure 4B)
Method: HT-29 cells (1 × 10^6 cells/well) were seeded in six-well plates and incubated for 24 h, followed by treatment with AMTs dissolved in DMSO (final concentrations of 10, 20, and 30 µg/mL for compounds 1, 2, 5, 6, 7, and 8, and 30, 60, and 90 µg/mL for compounds 3 and 4, and always below 0.05% DMSO) and 24 h of additional incubation. Colchicine (final concentration of 0.2 μg/mL) was used as positive control. The cells were then washed, harvested with trypsin, and centrifuged at 1500 rpm (5 min, 25 °C). The resulting pellet was fixed with ice-cold 70% ethanol (1 mL/10^6 cells) and the samples were stored at −4°C overnight. After fixation, the cells were washed with PBS, stained with PBS containing 5 mg/mL of RNase A, and incubated for 48 h at 4 °C. Subsequently, 50 μL of 0.1 mg/mL of IP was added and incubated for 1 h at 4 °C. The relative DNA content per cell was analyzed using a Cytomics FC500 flow cytometer (Beckman Coulter, Indianapolis, IN, USA). The data acquisition was performed with the DML program and the analysis of the acquired data with the CXP Software (Beckman Coulter, Indianapolis, IN, USA).

HT-29 cells [5] = assay: Wound migration assay; type: cell-based, human; conditions: 24 h, wound-healing; for inhibition at 10 µg/mL: Homo sapiens, HT-29, 10 μg/mL, read-out: inhibition of cell migration
Method: For cell migration assay, HT-29 cells were seeded in six-well culture plates and allowed to grow to 80%–90% confluence for the experiment. After aspirating the medium, similar sized wounds were performed in the monolayer cells using a sterile micropipette tip. Wounded monolayer cells were washed three times with PBS to remove cell debris and then replaced with complete McCoy’s medium. HT-29 cells were treated with the AMTs (10 µg/mL for compounds 1, 2, 5, 6, 7, and 8, and 30 µg/mL for compounds 3 and 4) and incubated for 24h. For the image analysis of the effect of each treatment on cell migration, the wounded area was photographed immediately after scratching and after 24 h. The level of cell migration was determined using NIH Image software (Image J 1.44g, Wayne Rasband, USA) and then expressed as a percentage of wound closure area using the equation: Migration rate (%) = [(wound area at 0 h − wound area at 24 h)/wound area at 0 h] × 100%.

p-JNK in HT-29 cells = assay: Western blot of phosphorylated JNK; type: cell-based, human; conditions: 24 h; 10 and 20 μg/mL for 1, 2, 5, 6, 7, 8; 30 and 60 μg/mL for 3 and 4
Method: as §2, §3

p-ERK1/2 in HT-29 cells = assay: Western blot of phosphorylated ERK1/2; type: cell-based, human; conditions: 24 h; 10 and 20 μg/mL
Method: as §2, §3

HT-29 cells [6] = conditions: cited from earlier work
[7] = colon cancer cells, 72 h of treatment, SRB, mean ± SE of three experiments

Molecule	IC50 [1] [µg/mL]	expression of p-AKT protein vs control (p-AKT in HT-29 cells)	induction of apoptosis or death of HT-29 cells (HT-29 colon cancer cells [2]; 4 tested at 30-90 μg/mL, 7 at 10-30 μg/mL)	IC50 [3, 7] [µg/mL]	Selectivity Index (SI) [3]	IC50 HT-29 [3, 7] [µg/mL]	accumulation of cells at the G2/M phase (cell cycle arrest, words) (HT-29 colon cancer cells [4])	inhibition of cell migration (HT-29 cells [5]; 30 μg/mL (methods, Figure 5B))	phospho-JNK level vs control (p-JNK in HT-29 cells)	necrosis (dead cells) (HT-29 colon cancer cells [2]) [%]	p-ERK1/2 level vs control (p-ERK1/2 in HT-29 cells)	inhibition at 10 µg/mL (HT-29 cells [5]) [%]	IC50 growth of HT-29 cells (HT-29 cells [6]) [µg/mL]	IC50 (HT-29 cells [6]; read-out: IC50 growth of HT-29 cells) [µM]	IC50 growth of HT-29 cells (HT-29 cells [6]; value in brackets, converted from μM) [µg/mL]
COc1c(C)cc(O)cc1C/C=C(\C)CC(=O)/C=C(/C)CCCC(C)=O [Compound 4, cystomexicone A]	61.9 ± 2.37 (≈ 173 µM)	significantly downregulated	did not induce neither apoptosis nor death	34.3 (≈ 95.7 µM)	1.68	36.86 ± 2.86 (≈ 103 µM)	significant	no significant effects	decreased phosphorylation						
COc1c(C)cc(O)cc1C/C=C(\C)CC(=O)/C=C(/C)CCCC(C)C(=O)/C=C/C(C)(C)O (stereo not drawn) [Compound 5, 6-cis-amentadione-1′-methyl ether]	41 ± 9.8 (≈ 89.7 µM)	no significant reduction		7.83 ± 0.05 (≈ 17.1 µM)	5.23		significant		decreased phosphorylation	72.75	significantly reduced	36.2			
COc1c(C)cc(O)cc1C/C=C(\C)CC(=O)/C=C(\C)CCCC(C)C(=O)/C=C/C(C)(C)O (centres unmarked) [Compound 6, amentadione-1′-methyl ether]	48.4 ± 3.84 (≈ 106 µM)	no significant reduction		10.7 ± 0.27 (≈ 23.5 µM)	4.51		not significant			59.55	significantly reduced	45.3			
sargachromanol R													3.4		
zonaquinone acetate														17.3	7.8

Source: publication PMC7143549, “Anticancer Activities of Meroterpenoids Isolated from the Brown Alga Cystoseira usneoides against the Human Colon Cancer Cells HT-29” (Foods, 2020)
